Laboratory results as given in patent US20150119410A1, “BIOMARKERS OF RESPONSE TO NAE INHIBITORS” (MILLENNIUM PHARMACEUTICALS, INC., priority 2011, published 2015).

Assays:
Assay in all cases: Cell line panel 1 viability screen
Format in all cases: cell-based
MIA-PaCa-2 = MIA-PaCa-2 (pancreas)
Protocol: (§1) To support clinical development and identify potential biomarkers of tumor sensitivity or resistance, two large cancer cell line panels (Panel 1, N=653 (McDermott et al. (2007) PNAS 104:19936-19941); Panel 2, N=240 (O'Day et al. (2010) Fourth AACR International Conference on Molecular Diagnostics in Cancer Therapeutic Development)) were treated with MLN4924 and cell viability data (IC50, EC50, and POC—Percentage of Control) were generated.
(§2) Panel 1 (McDermott et al., supra). The cell lines were exposed to three MLN4924 concentrations (20 nM, 200 nM, and 2 μM) for 72 hours. Viability, i.e., cell number, was quantified by measuring fluorescence of a cell-permeant nucleic acid stain. Mean of triplicate values for each sample were taken and compared to DMSO control to calculate percentage of control. In the results, control or no activity value is given a value of about 1, sensitivity is indicated by a value less than 1, with 0 as death of the entire cell population and resistance indicated by a value greater than 1. A continuum of viability values was obtained for each concentration, so some values were selected as cut-offs for final determination of sensitivity or resistance. For example, median POC values of less than the median value of all POC's recorded in the panel (<0.34) indicated sensitivity, values of 0.34 to 0.75 indicated borderline sensitivity, values greater than the 3rd quartile of all POC's in the panel (>0.75) insensitivity or resistance. […] Final judgment of cell line as sensitive, insensitive or resistant was determined by its viability at 2 μM.

HGC-27 = details: Homo sapiens; HGC-27 (stomach); 2 μM MLN4924, 72 hours; DMSO control about 1
Protocol: as §1, §2

SW837 = details: Homo sapiens; SW837 (intestine); 2 μM MLN4924, 72 hours; DMSO control about 1
Protocol: as §1, §2

NCl-H630 = NCl-H630 (intestine); 2 μM MLN4924, 72 hours; DMSO control about 1
Protocol: as §1, §2

SK-MEL-30 = details: Homo sapiens; SK-MEL-30 (skin); 2 μM MLN4924, 72 hours; DMSO control about 1
Protocol: as §1, §2

S-117 = S-117 (soft_tissue)
Protocol: as §1, §2

AsPC-1 = AsPC-1 (Pancreas)
Protocol: as §1, §2

AN3CA = AN3CA (Uterus)
Protocol: as §1, §2

SW1417 = details: Homo sapiens; SW1417 (intestine); 2 μM MLN4924, 72 hours; DMSO control about 1
Protocol: as §1, §2

HT29 = system: HT29
Protocol: as §1, §2

BxPC-3 = BxPC-3 (pancreas)
Protocol: as §1, §2

MKN1 = MKN1 (Stomach)
Protocol: as §1, §2

UMC-11 = UMC-11 (lung)
Protocol: as §1, §2

NCl-H1975 = NCl-H1975 (lung); 2 μM MLN4924, 72 hours; DMSO control about 1
Protocol: as §1, §2

NCl-H520 = NCl-H520 (lung NSCLC); 2 μM MLN4924, 72 hours; DMSO control about 1
Protocol: as §1, §2

SW1573 = SW1573 (lung)
Protocol: as §1, §2

KYSE-150 = KYSE-150 (oesophagus)
Protocol: as §1, §2

KU-19-19 = KU-19-19 (urinary_tract)
Protocol: as §1, §2

CAL-62 = CAL-62 (thyroid)
Protocol: as §1, §2

C2BBe1 = details: Homo sapiens; C2BBe1 (intestine); 2 μM MLN4924, 72 hours; DMSO control about 1
Protocol: as §1, §2

KP-4 = KP-4 (pancreas)
Protocol: as §1, §2

CaR-1 = CaR-1 (large_intestine)
Protocol: as §1, §2

CFPAC-1 = CFPAC-1 (pancreas)
Protocol: as §1, §2

[1] = Homo sapiens, 2 μM MLN4924, 72 hours, DMSO control about 1

NS(=O)(=O)OC[C@@H]1C[C@@H](n2ccc3c(N[C@H]4CCc5ccccc54)ncnc32)C[C@@H]1O [MLN4924, ((1S,2S,4R)-4-{4-[(1S)-2,3-dihydro-1H-inden-1-ylamino]-7H-pyrrolo[2,3-d]pyrimidin-7-yl}-2-hydroxycyclopentyl)methyl sulphamate]
viability at 2 µM (MIA-PaCa-2; [1]): 11.5%
Phenotype (MIA-PaCa-2; KDM6A mutant): sensitive (median POC values of less than the median value of all POC's recorded in the panel (<0.34) indicated sensitivity)
viability at 2 µM (HGC-27): 12.9%
viability at 2 µM (SW837): 70.2%
viability at 2 µM (NCl-H630): 75%
viability at 2 µM (SK-MEL-30): 77.3%
viability at 2 µM (S-117; [1]): 64.1%
Phenotype (S-117; NF2 mutant): resistant (values greater than the 3rd quartile of all POC's in the panel (>0.75) insensitivity or resistance)
Phenotype (AsPC-1; FBXW7 mutant): resistant (values greater than the 3rd quartile of all POC's in the panel (>0.75) insensitivity or resistance)
viability at 2 µM (AsPC-1; Homo sapiens, ASPC1, 2 μM MLN4924, 72 hours, DMSO control about 1): 98.9%
Phenotype (AN3CA; FBXW7 mutant): sensitive (median POC values of less than the median value of all POC's recorded in the panel (<0.34) indicated sensitivity)
viability at 2 µM (AN3CA; Homo sapiens, AN3-CA, 2 μM MLN4924, 72 hours, DMSO control about 1): 19.4%
viability at 2 µM (SW1417): 63.7%
Phenotype (HT29; HT-29 (large_intestine), SMAD4 mutant): insensitive (values of 0.34 to 0.75 indicated borderline sensitivity)
viability at 2 µM (HT29; Homo sapiens, HT29 / HT-29 (intestine), 2 μM MLN4924, 72 hours, DMSO control about 1): 43.8%
Phenotype (BxPC-3; SMAD4 mutant): insensitive (values of 0.34 to 0.75 indicated borderline sensitivity)
viability at 2 µM (BxPC-3; [1]): 41.9%
viability at 2 µM (MKN1; Homo sapiens, MKN-1, 2 μM MLN4924, 72 hours, DMSO control about 1): 46.3%
Phenotype (MKN1; FBXW7 mutant): insensitive (values of 0.34 to 0.75 indicated borderline sensitivity)
viability at 2 µM (UMC-11; [1]): 44.7%
Phenotype (UMC-11; SMAD4 mutant): insensitive (values of 0.34 to 0.75 indicated borderline sensitivity)
viability at 2 µM (NCl-H1975): 30.5%
viability at 2 µM (NCl-H520): 55.8%
viability at 2 µM (SW1573; [1]): 11.1%
Phenotype (SW1573; NF2 and SMAD4 mutant): sensitive (median POC values of less than the median value of all POC's recorded in the panel (<0.34) indicated sensitivity)
viability at 2 µM (KYSE-150; [1]): 12.8%
Phenotype (KYSE-150; SMAD4 mutant): sensitive (median POC values of less than the median value of all POC's recorded in the panel (<0.34) indicated sensitivity)
viability at 2 µM (KU-19-19; [1]): 5.8%
Phenotype (KU-19-19; KDM6A mutant): sensitive (median POC values of less than the median value of all POC's recorded in the panel (<0.34) indicated sensitivity)
Phenotype (CAL-62; NF2 mutant): sensitive (median POC values of less than the median value of all POC's recorded in the panel (<0.34) indicated sensitivity)
viability at 2 µM (CAL-62; [1]): 6.76%
viability at 2 µM (C2BBe1): 71.6%
viability at 2 µM (KP-4; [1]): 5.18%
Phenotype (KP-4; SMAD4 mutant): sensitive (median POC values of less than the median value of all POC's recorded in the panel (<0.34) indicated sensitivity)
Phenotype (CaR-1; NF2 mutant): sensitive (median POC values of less than the median value of all POC's recorded in the panel (<0.34) indicated sensitivity)
viability at 2 µM (CaR-1; [1]): 32.4%
Phenotype (CFPAC-1; SMAD4 mutant): sensitive?
viability at 2 µM (CFPAC-1; [1]): 28.2%
